Results on four molecules are retold here after US7193079B1 (Board of Trustees of Michigan State University, priority 2003, dated 2007).

Structures are written as SMILES.

One data set addresses GSK-3β (Homo sapiens, UniProt P49841). Description: Inhibition of GSK-3β (method of Meijer et al.). It counts as biochemical.
The subject of another data set is IL-2 production. Description: Inhibition of IL-2 production measured by competitive EIA in PMA/PHA-activated Jurkat T cells. It counts as cell-based, human. As to conditions: for IC50: PMA/PHA-activated Jurkat T cells, EIA, means of two experiments, standard deviation in parentheses. The method, then:
(§1) Exposure of human Jurkat leukemia T-cells to phorbol myristate acetate (PMA/PHA) and THP-1 cells to lipopolysaccharide (LPS), activates NF-κB mediated gene transcription of several pro-inflammatory cytokines, including IL-2, IL-6, IL-8 and TNF-α (Baldwin, Ann. Rev. Immunol. 14: 649–683 (1996); Grilli et al., Int. Rev. Cytol. 143: 1–62 (1993)). […] The inhibition of IL-2 was evaluated in Jurkat cells after PMA/PHA activation (Mahon and O'Neill, J. Biol. Chem. 270: 28557–28564 (1995); Lindgren et al., Molec. Immunol. 38V 267–277 (2001)). The inhibition of TNF-α was evaluated in THP-1 cells after LPS activation (Aikawa et al., Inflamm. Res. 51: 188–194 (2002)). […] After 24 hours, the cell free supernatant fractions were collected and subjected to EIA for the quantification of total IL-2 production.
To each well of a flat bottomed 96 well culture plate 0.2 mL 1×10^6 Jurkat E6-1 cells/mL were added. Each sample was then treated in duplicate with the compounds in DMSO at either 10 μM, 1 μM, 0.1 μM or 10 ηM and allowed to incubate for thirty minutes at 37° C., 5% CO2. Cell free supernatant fractions were collected from stimulated cultures incubated for 24 hr at 37° C., 5% CO2. Cultures were stimulated with phytohemagglutinin (PHA, Sigma-Aldrich, St. Louis, Mo.) at 1 μg/mL; and phorbol myristate acetate (PMA, Sigma-Aldrich, St. Louis, Mo.) at 50 ng/mL. The concentration of IL-2 in each sample was then measured using a competitive enzyme immunoassay (Neogen Corporation, Lansing, Mich.) according to the manufacturer's protocol. Known IL-2 concentrations were plotted and fit a 4 parameter logistic curve. Unknown concentrations were then extrapolated from the standard curve.

A further data set relates to TNF-α production. Description: Inhibition of TNF-α production measured by competitive EIA in LPS stimulated THP-1 cells. Format: cell-based, human. As to conditions: for IC50: EIA, 3 hr incubation, means of two experiments, standard deviation in parentheses. As for the experimental part: as §1
The assay measured the ability of the compounds to inhibit TNF-α production in LPS stimulated THP-1 cells (Aikawa et al., Inflamm. Res. 51V 188–194 (2002)).
THP-1 cells are grown in RPMI-1640 Media (Gibco-BRL, Rockville, Md.) supplemented with 5% fetal bovine serum, penicillin (614 ηg/mL), streptomycin (10 μg/mL) and HEPES buffer, pH 7.2 at 37° C., 5% CO2. To each well of a flat bottomed 96 well culture plate 0.2 mL 1×10^6 THP-1 cells/mL were added. Each sample was then treated in duplicate with the compounds in DMSO at either 10 μM, 1 μM, 0.1 μM or 10 ηM and allowed to incubate for thirty minutes at 37° C., 5% CO2. Cell free supernatant fractions were collected from stimulated cultures incubated for 3 hr at 37° C., 5% CO2. Cultures were stimulated with LPS (Sigma-Aldrich, St. Louis, Mo.) at 1 μg/mL. The concentration of TNF-α in each sample was then measured using a competitive enzyme immunoassay (Neogen Corporation, Lansing, Mich.) according to the manufacturer's protocol. To make a standard curve, known TNF-α concentrations were plotted and fitted to a 4 parameter logistic curve. Unknown concentrations were then extrapolated from the standard curve.

The next data set concerns NF-κB-DNA binding. Description: EMSA for NF-κB-DNA binding in nuclear extracts of PMA/PHA-activated Jurkat cells. It counts as cell-based, human. As to conditions: for Inhibition of DNA-binding (relative to activated control) / Count per mm^2 NF-κB bands: EMSA; for Inhibition of DNA-binding (relative to activated control): PMA-activated Jurkat cells; for Count per mm^2 NF-κB bands: activated control 105.55. The method, then:
Human Jurkat leukemia T-cells (clone E6-1; ATCC No. […] The Jurkat cells (1×10^6 cells/mL) are subsequently treated with various concentrations of the compounds in DMSO for 30 min. at 37° C. and 5% CO2 followed by PMA (50 ng/mL) and PHA ([…]) stimulation for an additional 30 minutes. The cells were harvested by centrifugation, washed in ice cold PBS and the nuclear extracts were prepared as previously described (Dignam et al., Nucl. Acids Res. 11: 1475-1489 (1983)). The protein concentration of the extracts was determined according to the Method of Bradford (1976) with BioRad reagents. Nuclear extracts were incubated for 20 minutes at room temperature with a double stranded Cy3 labeled NF-κB consensus oligonucleotide, [NT] ID NO:1). The binding mixture (25 μL) contained 10 mM HEPES-NaOH pH 7.9, 4 mM Tris-HCL, pH 7.9, 6.0 mM KCl, 1 mM EDTA, 1 mM DTT, 10% glycerol, 0.3 mg/mL bovine serum albumin, and 1 μg of poly (dI:dC). The binding mixtures (10 μg of nuclear extract protein) were incubated for 20 minutes at room temperature with 0.16 pmol of Cy3 labeled oligonucleotide. The mixture was loaded on a 4% polyacrylamide gel prepared in 1× TRIS borate/EDTA buffer and was electrophoresed at 200 V for 20 minutes. After electrophoresis the gel was analyzed using a phosphorimager (BIORAD FX PLUS, Biorad Laboratories, Inc., Hercules, Calif.) for detection of NF-κB-DNA binding.
For orientation: A gel shift assay detects complexes by their altered migration in electrophoresis.

A further data set has as its system CEM leukemia cells. Nature of the data set: Inhibition of cell growth in CEM leukemia cells (trypan blue counting). To be noted: 48 hour, means of two experiments, standard deviation in parentheses. Format: cell-based. As for the experimental part:
Cells were treated at different concentrations ranging from 10 ηM to 5 μM concentrations over a 48 hour time period.
CEM cells (CCRF-CEM; ATCC No. CCL-119, American Type Culture Collection, Manassas, Va.) were grown in RPMI-1640 Media (Gibco-BRL, Rockville, Md.) supplemented with 10% Fetal Bovine Serum, penicillin (614 r1 g/mL), streptomycin (10 μg/mL) and HEPES buffer, pH 7.2 at 37° C., 5% CO2. DMSO was used as the vector for all drugs and added in the control experiments. Cell cultures were then treated with 10 μM, 1 μM, 0.1 μM or 10 ηM of the drug in duplicate and allowed to incubate at 37° C., 5% CO2. Cells were stained with 4% trypan blue solution in PBS, and counted under the microscope (Thomas Scientific, Fisher Scientific) in duplicate. This was repeated for Oh, 2 h, 6 h, 12 h, 24 h, and 48 h. The data points obtained were then plotted and a point-to-point curve was drawn to determine the effect of the drug on the cells.

The next data set has as its system CDK1. Nature of the data set: Inhibition of CDK1 (method of Meijer et al.). It counts as biochemical. The source says: The inhibitory activity of compound 3 was less pronounced.
The target in another data set is T1, CHK1 (Homo sapiens, UniProt O14757).
T1 sequence (O14757 1-476): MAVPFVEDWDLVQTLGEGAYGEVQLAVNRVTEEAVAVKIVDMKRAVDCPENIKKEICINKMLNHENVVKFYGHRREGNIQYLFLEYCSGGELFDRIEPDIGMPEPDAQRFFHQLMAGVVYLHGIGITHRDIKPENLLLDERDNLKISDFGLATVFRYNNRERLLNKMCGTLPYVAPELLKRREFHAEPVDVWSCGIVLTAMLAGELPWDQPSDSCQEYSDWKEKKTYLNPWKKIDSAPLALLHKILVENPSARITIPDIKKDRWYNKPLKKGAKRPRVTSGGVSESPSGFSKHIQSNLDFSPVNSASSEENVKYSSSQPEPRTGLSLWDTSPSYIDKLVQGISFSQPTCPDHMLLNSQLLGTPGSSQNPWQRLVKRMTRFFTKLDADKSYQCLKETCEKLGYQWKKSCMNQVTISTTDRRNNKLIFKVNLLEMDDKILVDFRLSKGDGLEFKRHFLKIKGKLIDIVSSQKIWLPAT
As to conditions: natural products, general statement; cited from earlier work.

Sequence of GSK-3β (P49841 whole entry, species assumed): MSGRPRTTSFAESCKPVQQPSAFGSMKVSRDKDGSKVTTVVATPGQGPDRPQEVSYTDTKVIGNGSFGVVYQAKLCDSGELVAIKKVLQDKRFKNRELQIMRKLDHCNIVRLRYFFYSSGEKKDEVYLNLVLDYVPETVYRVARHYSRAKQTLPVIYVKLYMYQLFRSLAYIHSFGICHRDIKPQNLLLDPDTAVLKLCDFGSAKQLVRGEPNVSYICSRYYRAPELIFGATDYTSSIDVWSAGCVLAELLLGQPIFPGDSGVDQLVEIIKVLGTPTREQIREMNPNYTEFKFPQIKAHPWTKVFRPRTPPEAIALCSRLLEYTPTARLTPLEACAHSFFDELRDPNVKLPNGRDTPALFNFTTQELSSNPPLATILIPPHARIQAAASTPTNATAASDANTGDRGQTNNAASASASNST

As to `Cn1c2c(c3ccccc31)C(=C1N=C(N)NC1=O)CCNC2=O` [Compound 3, 5-(2-amino-5-oxo-1,5-dihydro-imidazol-4-ylidene)-10-methyl-3,4,5,10-tetrahydro-2H-azepino[3,4-b]indol-1-one], the melting point – broadly, the temperature of the solid-liquid transition – is above 260 °C. Besides, on GSK-3β, the IC50 – broadly, the concentration needed to halve the response being measured – is above 10 µM. For the same molecule, the IC50 in the data set on IL-2 production (Homo sapiens, 24 hr) was above 10000 nM. In addition, the “Inhibition of IL-2 production (in words)” value in the data set with IL-2 production (Jurkat cells, measured up to 10 μM) is “no significant inhibition of IL-2 production”. Further, the IC50 in the data set with TNF-α production (Homo sapiens) was above 10000 nM. Also, the “Inhibition of TNF-α production (in words)” value in the data set with TNF-α production (tested up to 10 μM) is on record as “did not have any significant activity”. For the same molecule, in the data set on NF-κB-DNA binding (1.0 μM), the “Inhibition of DNA-binding (relative to activated control)” value is reported as 0% and the “Count per mm^2 NF-κB bands” value was found to be 118.82 Count per mm^2. Moreover, in the data set on NF-κB-DNA binding (5.0 μM), the “Inhibition of DNA-binding (relative to activated control)” value was 0% and the “Count per mm^2 NF-κB bands” value is listed as 121.76 Count per mm^2. For the same molecule, in the data set on NF-κB-DNA binding (measured up to concentrations of 5 μM), the “Inhibition of NF-κB-DNA binding (in words)” value was “did not appear to substantially inhibit DNA binding”. In the data set on CEM leukemia cells, the 50% growth inhibitory concentration (GI50) (usually the concentration that inhibits growth by half) was 14.3 µM. In the data set on CDK1, the concentration for half-maximal inhibition (IC50) is above 10 µM.
In the case of `NC1=NC(=O)/C(=C2\CCNC(=O)c3[nH]c(Br)cc32)N1` [Hymenialdisine 1, hymenialdisine, reference compound], the 50% inhibitory concentration (IC50) in the data set with IL-2 production (Homo sapiens, Jurkat, 24 h) is 2400 nM; in the data set with IL-2 production (24 hr) it was 2410 nM; in the data set with TNF-α production, 1360 nM; in the data set on TNF-α production (Homo sapiens, THP-1, 3 h), 1400 nM. In addition, the “Count per mm^2 NF-κB bands” value is on record as 102.14 Count per mm^2 in the data set on NF-κB-DNA binding (1.0 μM) and 57.06 Count per mm^2 with NF-κB-DNA binding (5.0 μM). Moreover, in the data set on CEM leukemia cells, the concentration for 50% growth inhibition (GI50) came out at 1.61 µM.
For `S=C(S)N1CCCC1` [PDTC, pyrrolidinedithiocarbamate, reference compound], the concentration for half-maximal inhibition (IC50) in the data set with IL-2 production (Homo sapiens, 24 hr) amounted to 5120 nM; in the data set with TNF-α production (Homo sapiens) it was 6110 nM. The “Inhibition of DNA-binding (relative to activated control)” value was found to be 30% in the data set with NF-κB-DNA binding (1.0 μM) and 51% with NF-κB-DNA binding (5.0 μM). For the same molecule, the “Count per mm^2 NF-κB bands” value in the data set with NF-κB-DNA binding (1.0 μM) is on record as 73.48 Count per mm^2; in the data set with NF-κB-DNA binding (5.0 μM), 51.68 Count per mm^2.
For `NC1=N/C(=C2/CCNC(=O)c3[nH]ccc32)C(=O)N1` [debromohymenialdisine], the “Inhibition of checkpoint kinase CHK1 (in words)” value at CHK1 is listed as “low micromolar concentrations”.
